Laboratory results from patent US20260258035A1, “FIVE-MEMBERED AND SIX-MEMBERED NITROGEN-CONTAINING COMPOUND, AND INTERMEDIATE, PREPARATION METHOD AND USE THEREOF” (HANGZHOU SYNRX THERAPEUTICS BIOMEDICAL TECHNOLOGY CO., LTD., priority 2022, published 2026).
Read-outs that look alike come from different tables or passages of the source.

Tests used:
[1] = tested on: HCC1806; experiment: Cell viability assay (CellTiter-Glo); type: cell-based, Human; conditions: HCC1806, 7 days, CellTiter-Glo, read-out: IC50 (nM) in cell viability assay
[2] = target: PARG (Homo sapiens, UniProt Q86W56); experiment: Biochemical assay (PARG, TFMU-ADPr substrate)
Sequence of PARG (Q86W56 whole entry): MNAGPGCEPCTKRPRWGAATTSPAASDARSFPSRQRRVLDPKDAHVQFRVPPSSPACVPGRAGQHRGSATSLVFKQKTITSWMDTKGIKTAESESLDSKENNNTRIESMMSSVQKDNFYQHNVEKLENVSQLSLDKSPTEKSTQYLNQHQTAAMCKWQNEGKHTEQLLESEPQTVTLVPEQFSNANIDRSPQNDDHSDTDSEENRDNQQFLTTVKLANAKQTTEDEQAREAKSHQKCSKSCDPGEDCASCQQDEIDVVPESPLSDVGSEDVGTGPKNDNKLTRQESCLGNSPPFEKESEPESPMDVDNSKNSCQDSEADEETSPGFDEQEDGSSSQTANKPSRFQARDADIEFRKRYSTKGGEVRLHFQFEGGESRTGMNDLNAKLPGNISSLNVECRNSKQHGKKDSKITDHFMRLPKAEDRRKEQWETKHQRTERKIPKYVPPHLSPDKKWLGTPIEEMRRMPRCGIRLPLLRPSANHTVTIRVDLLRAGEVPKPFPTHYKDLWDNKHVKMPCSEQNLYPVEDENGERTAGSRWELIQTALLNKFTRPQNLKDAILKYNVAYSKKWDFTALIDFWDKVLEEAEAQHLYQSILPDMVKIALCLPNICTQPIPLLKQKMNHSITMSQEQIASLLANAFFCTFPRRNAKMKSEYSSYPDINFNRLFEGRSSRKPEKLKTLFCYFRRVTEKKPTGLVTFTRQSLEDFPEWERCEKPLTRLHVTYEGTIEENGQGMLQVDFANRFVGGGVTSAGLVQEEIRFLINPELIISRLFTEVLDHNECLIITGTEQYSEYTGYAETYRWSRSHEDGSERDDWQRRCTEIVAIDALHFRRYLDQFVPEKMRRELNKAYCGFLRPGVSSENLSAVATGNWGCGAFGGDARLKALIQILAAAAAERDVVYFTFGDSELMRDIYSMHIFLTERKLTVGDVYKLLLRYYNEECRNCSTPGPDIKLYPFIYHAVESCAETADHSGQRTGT

[3] = 4 nM PARG, 66.2 uM TFMU-ADPr, 3 min at room temperature

| IC50 ([1]; Homo sapiens, HCC1806, 168 h) | IC50 ([2]; PARG, TFMU-ADPr substrate) | IC50 [1] | IC50 [2, 3] | Structure (SMILES) |
| --- | --- | --- | --- | --- |
| 85 nM | 0.5 nM |  |  | C[C@H]1CN(c2cc(S(=O)(=O)NC3(C)COC3)cn3c(-c4nnc(C(F)(F)F)s4)ncc23)C[C@H](C)O1 [Example 355, 8-((2S,6S)-2,6-dimethylmorpholino)-N-(3-methyloxetan-3-yl)-3-(5-(trifluoromethyl)-1,3,4-thiadiazol-2-yl)imidazo[1,5-a]pyridine-6-sulfonamide] |
| 305 nM | 6.31 nM |  |  | COCC1CN(c2cc(S(=O)(=O)NC3(CF)COC3)cn3c(-c4nnc(C(F)F)s4)ncc23)CCN1 (centres unmarked) [Example 356, 3-(5-(difluoromethyl)-1,3,4-thiadiazol-2-yl)-N-(3-(fluoromethyl)oxetan-3-yl)-8-(3-(methoxymethyl)piperazin-1-yl)imidazo[1,5-a]pyridine-6-sulfonamide] |
| 208 nM | 8.31 nM |  |  | COCC1CN(c2cc(S(=O)(=O)NC3(C)COC3)cn3c(-c4nnc(C(F)F)s4)ncc23)CCN1 (centres unmarked) [Example 357, 3-(5-(difluoromethyl)-1,3,4-thiadiazol-2-yl)-8-(3-(methoxymethyl)piperazin-1-yl)-N-(3-methyloxetan-3-yl)imidazo[1,5-a]pyridine-6-sulfonamide] |
| 261 nM | 15.8 nM |  |  | COCC1CN(c2cc(S(=O)(=O)NC3(C)COC3)cn3c(-c4nnc(C(F)(F)F)s4)ncc23)CCN1 (centres unmarked) [Example 358, 8-(3-(methoxymethyl)piperazin-1-yl)-N-(3-methyloxetan-3-yl)-3-(5-(trifluoromethyl)-1,3,4-thiadiazol-2-yl)imidazo[1,5-a]pyridine-6-sulfonamide] |
| 47 nM | 1.44 nM |  |  | C[C@H]1CN(c2cc(S(=O)(=O)NC3(CF)COC3)cn3c(-c4nnc(C(F)F)s4)ncc23)C[C@H](C)N1 [Example 359, 3-(5-(difluoromethyl)-1,3,4-thiadiazol-2-yl)-8-((3S,5S)-3,5-dimethylpiperazin-1-yl)-N-(3-(fluoromethyl)oxetan-3-yl)imidazo[1,5-a]pyridine-6-sulfonamide] |
| 637 nM | 36.3 nM |  |  | COCC1CN(c2cc(S(=O)(=O)NC3(C)COC3)cn3c(-c4nnc(C(F)(F)F)s4)cnc23)CCN1 (centres unmarked) [Example 360, 8-(3-(methoxymethyl)piperazin-1-yl)-N-(3-methyloxetan-3-yl)-3-(5-(trifluoromethyl)-1,3,4-thiadiazol-2-yl)imidazo[1,2-a]pyridine-6-sulfonamide] |
| 642 nM | 18.2 nM |  |  | CC(C)OCC1CN(c2cc(S(=O)(=O)NC3(C)COC3)cn3c(-c4nnc(C(F)F)s4)ncc23)CCN1 (centres unmarked) [Example 361, 3-(5-(difluoromethyl)-1,3,4-thiadiazol-2-yl)-8-(3-(isopropoxymethyl)piperazin-1-yl)-N-(3-methyloxetan-3-yl)imidazo[1,5-a]pyridine-6-sulfonamide] |
| 158 nM | 6.31 nM |  |  | CCNC(=O)N1CCN(c2cc(S(=O)(=O)NC3(C)COC3)cn3c(-c4nnc(C(F)(F)F)s4)ncc23)CC1 [Example 362, N-ethyl-4-(6-(N-(3-methyloxetan-3-yl)sulfamoyl)-3-(5-(trifluoromethyl)-1,3,4-thiadiazol-2-yl)imidazo[1,5-a]pyridin-8-yl)piperazine-1-carboxamide] |
| 63 nM | 1.71 nM |  |  | CC1(NS(=O)(=O)c2cc(N3CCN4C(=O)COCC4C3)c3cnc(-c4nnc(C(F)(F)F)s4)n3c2)COC1 (centres unmarked) [Example 363, N-(3-methyloxetan-3-yl)-8-(4-oxohexahydropyrazino[2,1-c][1,4]oxazin-8(1H)-yl)-3-(5-(trifluoromethyl)-1,3,4-thiadiazol-2-yl)imidazo[1,5-a]pyridine-6-sulfonamide] |
| 791 nM | 41.4 nM |  |  | CC1(NS(=O)(=O)c2cc(N3CCN(C4CC4)CC3)c3cnc(-c4nnc(C(F)F)s4)n3c2)COC1 [Example 364, 8-(4-cyclopropylpiperazin-1-yl)-3-(5-(difluoromethyl)-1,3,4-thiadiazol-2-yl)-N-(3-methyloxetan-3-yl)imidazo[1,5-a]pyridine-6-sulfonamide] |
| 1070 nM | 8.58 nM |  |  | CC1(NS(=O)(=O)c2cc(N3CCNC4(CC4)C3)c3cnc(-c4nnc(C(F)F)s4)n3c2)COC1 [Example 365, 3-(5-(difluoromethyl)-1,3,4-thiadiazol-2-yl)-N-(3-methyloxetan-3-yl)-8-(4,7-diazaspiro[2.5]octan-7-yl)imidazo[1,5-a]pyridine-6-sulfonamide] |
| 5000 to 30000 nM | 32.8 nM | 6780 nM | < 100 nM | Cn1nccc1C1C=C(c2cc(S(=O)(=O)NC3(C#N)CC3)cn3c(-c4nnc(C(F)F)s4)nnc23)CC1 (centres unmarked) [Example 367, N-(1-cyanocyclopropyl)-3-(5-(difluoromethyl)-1,3,4-thiadiazol-2-yl)-8-(3-(1-methyl-1H-pyrazol-5-yl)cyclopent-1-en-1-yl)-[1,2,4]triazolo[4,3-a]pyridine-6-sulfonamide] |
| 900 nM | 13.8 nM |  |  | CC(C)C(=O)N1CC=C(c2cc(S(=O)(=O)NC3(C#N)CC3)cn3c(-c4nnc(C(F)(F)F)s4)ncc23)CC1 [Example 368, N-(1-cyanocyclopropyl)-8-(1-isobutyryl-1,2,3,6-tetrahydropyridin-4-yl)-3-(5-(trifluoromethyl)-1,3,4-thiadiazol-2-yl)imidazo[1,5-a]pyridine-6-sulfonamide] |
| 505 nM | 1.91 nM |  |  | N#CC1(NS(=O)(=O)c2cc(C3=CCN(S(=O)(=O)C4CC4)CC3)c3cnc(-c4nnc(C(F)(F)F)s4)n3c2)CC1 [Example 369, N-(1-cyanocyclopropyl)-8-(1-(cyclopropylsulfonyl)-1,2,3,6-tetrahydropyridin-4-yl)-3-(5-(trifluoromethyl)-1,3,4-thiadiazol-2-yl)imidazo[1,5-a]pyridine-6-sulfonamide] |
| 240 nM | 41.7 nM |  |  | CC(=O)N1CC=C(c2cc(S(=O)(=O)NC3(C#N)CC3)cn3c(-c4nnc(C(F)(F)F)s4)ncc23)CC1 [Example 370, 8-(1-acetyl-1,2,3,6-tetrahydropyridin-4-yl)-N-(1-cyanocyclopropyl)-3-(5-(trifluoromethyl)-1,3,4-thiadiazol-2-yl)imidazo[1,5-a]pyridine-6-sulfonamide] |
| 360 nM | 4.57 nM |  |  | N#CC1(NS(=O)(=O)c2cc(C3=CCN(C(=O)C4(O)CC4)CC3)c3cnc(-c4nnc(C(F)(F)F)s4)n3c2)CC1 [Example 371, N-(1-cyanocyclopropyl)-8-(1-(1-hydroxycyclopropane-1-carbonyl)-1,2,3,6-tetrahydropyridin-4-yl)-3-(5-(trifluoromethyl)-1,3,4-thiadiazol-2-yl)imidazo[1,5-a]pyridine-6-sulfonamide] |
| 580 nM | 3.8 nM |  |  | N#CC1(NS(=O)(=O)c2cc(C3CCN(C(=O)C4(O)CC4)CC3)c3cnc(-c4nnc(C(F)(F)F)s4)n3c2)CC1 [Example 372, N-(1-cyanocyclopropyl)-8-(1-(1-hydroxycyclopropane-1-carbonyl)piperidin-4-yl)-3-(5-(trifluoromethyl)-1,3,4-thiadiazol-2-yl)imidazo[1,5-a]pyridine-6-sulfonamide] |
| 21.1 nM | 3.31 nM |  |  | COC1(C(=O)N2CCC(c3cc(S(=O)(=O)NC4(C#N)CC4)cn4c(-c5nnc(C(F)(F)F)s5)ncc34)CC2)CC1 [Example 373, N-(1-cyanocyclopropyl)-8-(1-(1-methoxycyclopropane-1-carbonyl)piperidin-4-yl)-3-(5-(trifluoromethyl)-1,3,4-thiadiazol-2-yl)imidazo[1,5-a]pyridine-6-sulfonamide] |
| 60 nM | 1.41 nM |  |  | CC1(NS(=O)(=O)c2cc(C3=CCN(S(C)(=O)=O)CC3)c3cnc(-c4nnc(C(F)(F)F)s4)n3c2)CC1 [Example 377, N-(1-methylcyclopropyl)-8-(1-(methylsulfonyl)-1,2,3,6-tetrahydropyridin-4-yl)-3-(5-(trifluoromethyl)-1,3,4-thiadiazol-2-yl)imidazo[1,5-a]pyridine-6-sulfonamide] |
| 5000 to 30000 nM | 27.7 nM | 6000 nM | < 100 nM | Cn1nccc1C1CCC(c2cc(S(=O)(=O)NC3(C#N)CC3)cn3c(-c4nnc(C(F)F)s4)nnc23)C1 (centres unmarked) [Example 378, N-(1-cyanocyclopropyl)-3-(5-(difluoromethyl)-1,3,4-thiadiazol-2-yl)-8-(3-(1-methyl-1H-pyrazol-5-yl)cyclopentyl)-[1,2,4]triazolo[4,3-a]pyridine-6-sulfonamide] |
| 20 nM | 2.09 nM |  |  | COC1(C(=O)N2CC=C(c3cc(S(=O)(=O)NC4(C#N)CC4)cn4c(-c5nnc(C(F)(F)F)s5)ncc34)CC2)CC1 [Example 379, N-(1-cyanocyclopropyl)-8-(1-(1-methoxycyclopropane-1-carbonyl)-1,2,3,6-tetrahydropyridin-4-yl)-3-(5-(trifluoromethyl)-1,3,4-thiadiazol-2-yl)imidazo[1,5-a]pyridine-6-sulfonamide] |
| 3630 nM | 27.1 nM |  |  | N#CC1(NS(=O)(=O)c2cc(N3CCN(C(=O)C4(OCC(=O)O)CC4)CC3)c3cnc(-c4nnc(C(F)F)s4)n3c2)CC1 [Example 381, 2-(1-(4-(6-(N-(1-cyanocyclopropyl)sulfamoyl)-3-(5-(difluoromethyl)-1,3,4-thiadiazol-2-yl)imidazo[1,5-a]pyridin-8-yl)piperazine-1-carbonyl)cyclopropoxy)acetic acid] |
| 828 nM | 6.55 nM |  |  | CC1(NS(=O)(=O)c2cc(N3CCN(C(=O)C4(OCC(=O)O)CC4)CC3)c3cnc(-c4nnc(C(F)F)s4)n3c2)CC1 [Example 382, 2-(1-(4-(3-(5-(difluoromethyl)-1,3,4-thiadiazol-2-yl)-6-(N-(1-methylcyclopropyl)sulfamoyl)imidazo[1,5-a]pyridin-8-yl)piperazine-1-carbonyl)cyclopropoxy)acetic acid] |
